Results: ChEMBL document CHEMBL1201862, “PubChem BioAssay data set” (2004)
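1) Cells in 96-well plates. 2) Compound, 48 h, 5 concentrations. 3) Linear interpolation between surrounding doses. 4) Unreached endpoint = highest concentration. GI50 is the concentration that inhibits growth by half.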 Active and inactive are the calls of the source. Cut-off read from the data, not from the text of the source: active = GI50 up to about 1.1 µM and inactive = higher.

What was measured:
Assay in all cases: NCI-60 cell line screen, 48 h
BT-549 = system: BT-549
Hs-578T = system: Hs-578T
DMS-273 = system: DMS-273
HOP-18 = system: HOP-18
LXFL 529 = system: LXFL 529
XF498 = system: XF498
M19-MEL = system: M19-MEL
T47D = system: T47D
RXF 631 = system: RXF 631

Measured: GI50

Cc1cccc(/C=C2\CCCc3ccccc3C2=O)c1
inactive: BT-549 24.3 µM | Hs-578T 15.8 µM

NC(=O)c1csc(C2O[C@@H](COP(=O)(O)OP(=O)(O)OC[C@H]3OC(n4cnc5c(N)ncnc54)[C@H](O)[C@@H]3O)[C@H](O)[C@@H]2O)n1 (some centres not stated)
inactive: DMS-273 99.5 µM | HOP-18 > 100 µM | LXFL 529 > 100 µM | XF498 33.2 µM

C=C1C(=O)C[C@@]23CCC[C@@]12CC(OCOC)C3 (some centres not stated)
inactive: DMS-273 2.4 µM | HOP-18 3.6 µM | M19-MEL 3.59 µM | XF498 3.12 µM

O=NN(CCCl)C(=O)N[C@H]1CC[C@H](C(=O)O)CC1
inactive: DMS-273 > 100 µM | HOP-18 > 100 µM | M19-MEL > 100 µM | XF498 > 100 µM

CN(O)C(=O)CCCC(=O)NCC(C)(C)CNC(=O)CCCC(=O)N(C)O
inactive: Hs-578T > 100 µM | T47D > 100 µM

CC(C)(C)[Si](OC1CCOC1=O)(c1ccccc1)c1ccccc1 (configuration not stated)
inactive: HOP-18 18.9 µM | LXFL 529 20.7 µM | M19-MEL 19.2 µM | RXF 631 22.5 µM | XF498 11.1 µM

NC(=S)N/N=C1\CC(c2ccccc2)Nc2ccccc21 (configuration not stated)
inactive: DMS-273 32.3 µM | HOP-18 54.6 µM | LXFL 529 33.8 µM | M19-MEL 39.4 µM | XF498 6.76 µM

COc1ccc(C2CC(c3sc(Nc4ccc(C)cc4)nc3C)=NN2)cc1 (configuration not stated)
inactive: DMS-273 18.8 µM | HOP-18 15.3 µM | M19-MEL > 44.1 µM | XF498 21 µM

CCOC(=O)c1cc2c([N+](=O)[O-])c(NC(C)=O)ccc2s1
inactive: BT-549 72.1 µM | Hs-578T 37.8 µM | T47D 15 µM

C=CCn1c(=O)ccn(COCCO)c1=O
inactive: BT-549 > 100 µM | Hs-578T > 100 µM | T47D > 100 µM

COc1c(Cl)cc(Cl)cc1S(=O)O
inactive: LXFL 529 > 100 µM | M19-MEL > 100 µM | XF498 > 100 µM

NC(=O)c1ncn2c1NC(=O)CC2
inactive: DMS-273 > 100 µM | HOP-18 > 100 µM | M19-MEL > 100 µM | XF498 > 100 µM

O=P(CCOc1ccccc1OCCP(=O)(c1ccccc1)c1ccc2c(c1)OCCOCCOCCOCCO2)(c1ccccc1)c1ccc2c(c1)OCCOCCOCCOCCO2 (configuration not stated)
inactive: DMS-273 > 100 µM | LXFL 529 > 100 µM | M19-MEL > 100 µM | XF498 > 100 µM

C=CCN1C(=O)/C(=C/c2ccc(OC)cc2)NC1=S
inactive: BT-549 50.2 µM | Hs-578T > 100 µM | T47D 42.2 µM

CON(C)C(=O)C(Cc1ccccc1)NC(=O)OCc1ccccc1 (configuration not stated)
inactive: DMS-273 > 100 µM | LXFL 529 > 100 µM | M19-MEL > 100 µM | XF498 64.3 µM

CC1CC(NC2CCCCC2)=Nc2ccccc2N1Cc1ccccc1 (configuration not stated)
inactive: BT-549 6.05 µM | Hs-578T 3.95 µM | T47D 4.18 µM

O=CN1CCC23CC(O)CCC2C1Cc1cc(Oc2nnnn2-c2ccccc2)cc(O)c13 (configuration not stated)
inactive: BT-549 51.9 µM | Hs-578T > 100 µM | T47D 79.1 µM

O=C1/C(=C/c2ccccc2)NC(=S)N1CN1CCOCC1
inactive: Hs-578T > 100 µM

O=[N+]([O-])C(/C=C(\Cl)[N+](=O)[O-])=C1Nc2ccccc2N1
inactive: BT-549 42 µM | Hs-578T 48.9 µM | T47D 17.9 µM

CCOP(=Nc1ccc(N(C)C)cc1)(OCC)OCC
inactive: BT-549 > 100 µM | Hs-578T > 100 µM

CC(C)CC(NC(=O)OCc1ccccc1)C(=O)NCCCCC(N)C(=O)NC(CCCCNC(=O)C(CC(C)C)NC(=O)OCc1ccccc1)C(=O)NC(CCCCNC(=O)C(CC(C)C)NC(=O)OCc1ccccc1)C(=O)NC(CCCCNC(=O)C(CC(C)C)NC(=O)OCc1ccccc1)C(=O)NC(CCCCNC(=O)C(CC(C)C)NC(=O)OCc1ccccc1)C(=O)NC(CCCCNC(=O)C(CC(C)C)NC(=O)OCc1ccccc1)C(=O)O (configuration not stated)
inactive: BT-549 > 100 µM | T47D > 100 µM

COc1ccc(C2=NN(c3nsc4ccccc34)C(=O)CC2)cc1
inactive: DMS-273 > 100 µM | HOP-18 12.6 µM | LXFL 529 75 µM | M19-MEL > 100 µM

COC(=O)C(=O)C(C(C)=O)C(=O)C(=O)Nc1ccc(C)cc1C (configuration not stated)
inactive: DMS-273 > 100 µM | LXFL 529 > 100 µM | M19-MEL > 100 µM | XF498 > 100 µM

COc1cccc(CC(C)N)c1 (configuration not stated)
inactive: DMS-273 > 100 µM | HOP-18 > 100 µM | LXFL 529 > 100 µM | RXF 631 > 100 µM

Cc1nc2cccc(F)c2c(=O)n1C1CCCCNC1=O (configuration not stated)
inactive: Hs-578T > 10 µM | T47D > 10 µM
